What was measured:
[1] = test system: Nucleic Acid; test: Binding affinity to Escherichia coli pUC19 DNA assessed as form 2 DNA level at 0.175 mM after 13.07 hrs by agarose gel electrophoresis; assay type: nucleic-acid assay
[2] = test system: Nucleic Acid; test: Binding affinity to Escherichia coli pUC19 DNA assessed as form 1 DNA level at 0.698 mM after 9.07 hrs by agarose gel electrophoresis; assay type: nucleic-acid assay
[3] = test system: Nucleic Acid; test: Binding affinity to Escherichia coli pUC19 DNA assessed as form 1 DNA level at 0.320 mM after 13.07 hrs by agarose gel electrophoresis; assay type: nucleic-acid assay
[4] = test system: HL-60; test: Growth inhibition of human HL60 cells at 100 uM after 72 hrs by MTT assay; assay type: functional; parameters: scale not given: the % may be the effect or the level left
[5] = test system: Nucleic Acid; test: Binding affinity to Escherichia coli pUC19 DNA assessed as form 1 DNA level at 0.463 mM after 15 hrs by agarose gel electrophoresis; assay type: nucleic-acid assay
[6] = test system: Nucleic Acid; test: Binding affinity to Escherichia coli pUC19 DNA assessed as form 1 DNA level at 0.320 mM after 9.07 hrs by agarose gel electrophoresis; assay type: nucleic-acid assay
[7] = test system: Nucleic Acid; test: Binding affinity to Escherichia coli pUC19 DNA assessed as form 2 DNA level at 0.175 mM after 9.07 hrs by agarose gel electrophoresis; assay type: nucleic-acid assay
[8] = test system: Nucleic Acid; test: Binding affinity to Escherichia coli pUC19 DNA assessed as form 1 DNA level at 0.175 mM after 23.12 hrs by agarose gel electrophoresis; assay type: nucleic-acid assay
[9] = test system: Nucleic Acid; test: Binding affinity to Escherichia coli pUC19 DNA assessed as form 2 DNA level at 0.463 mM by agarose gel electrophoresis; assay type: nucleic-acid assay
[10] = test system: Nucleic Acid; test: Binding affinity to Escherichia coli pUC19 DNA assessed as form 1 DNA level at 0.698 mM by agarose gel electrophoresis; assay type: nucleic-acid assay
[11] = test system: Nucleic Acid; test: Binding affinity to Escherichia coli pUC19 DNA assessed as form 1 DNA level at 0.463 mM after 7.08 hrs by agarose gel electrophoresis; assay type: nucleic-acid assay
[12] = test system: Nucleic Acid; test: Binding affinity to Escherichia coli pUC19 DNA assessed as form 2 DNA level at 0.320 mM by agarose gel electrophoresis; assay type: nucleic-acid assay
[13] = test system: Nucleic Acid; test: Binding affinity to Escherichia coli pUC19 DNA assessed as form 2 DNA level at 0.698 mM after 9.07 hrs by agarose gel electrophoresis; assay type: nucleic-acid assay
[14] = test system: Nucleic Acid; test: Binding affinity to Escherichia coli pUC19 DNA assessed as form 1 DNA level at 0.175 mM after 4.95 hrs by agarose gel electrophoresis; assay type: nucleic-acid assay
[15] = test system: Nucleic Acid; test: Binding affinity to Escherichia coli pUC19 DNA assessed as form 2 DNA level at 0.463 mM after 4.42 hrs by agarose gel electrophoresis; assay type: nucleic-acid assay
[16] = test system: HL-60; test: Growth inhibition of human HL60 cells at 1000 uM after 72 hrs by MTT assay; assay type: functional; parameters: scale not given: the % may be the effect or the level left
[17] = test system: Nucleic Acid; test: Binding affinity to Escherichia coli pUC19 DNA assessed as form 2 DNA level at 0.175 mM by agarose gel electrophoresis; assay type: nucleic-acid assay
[18] = test system: Nucleic Acid; test: Binding affinity to Escherichia coli pUC19 DNA assessed as form 1 DNA level at 0.463 mM after 11.30 hrs by agarose gel electrophoresis; assay type: nucleic-acid assay
[19] = test system: Nucleic Acid; test: Binding affinity to Escherichia coli pUC19 DNA assessed as form 2 DNA level at 0.698 mM by agarose gel electrophoresis; assay type: nucleic-acid assay
[20] = test system: HeLa; test: Growth inhibition of human HeLa cells at 1000 uM after 72 hrs by MTT assay; assay type: functional; parameters: scale not given: the % may be the effect or the level left
[21] = test system: Nucleic Acid; test: Binding affinity to Escherichia coli pUC19 DNA assessed as form 2 DNA level at 0.463 mM after 11.30 hrs by agarose gel electrophoresis; assay type: nucleic-acid assay
[22] = test system: Nucleic Acid; test: Binding affinity to Escherichia coli pUC19 DNA assessed as form 2 DNA level at 0.463 mM after 15 hrs by agarose gel electrophoresis; assay type: nucleic-acid assay
[23] = test system: Nucleic Acid; test: Binding affinity to Escherichia coli pUC19 DNA assessed as form 1 DNA level at 0.320 mM by agarose gel electrophoresis; assay type: nucleic-acid assay
[24] = test system: Nucleic Acid; test: Binding affinity to Escherichia coli pUC19 DNA assessed as form 2 DNA level at 0.698 mM after 4.95 hrs by agarose gel electrophoresis; assay type: nucleic-acid assay
[25] = test system: Nucleic Acid; test: Binding affinity to Escherichia coli pUC19 DNA assessed as form 1 DNA level at 0.320 mM after 27.33 hrs by agarose gel electrophoresis; assay type: nucleic-acid assay
[26] = test system: Nucleic Acid; test: Binding affinity to Escherichia coli pUC19 DNA assessed as form 2 DNA level at 0.320 mM after 27.33 hrs by agarose gel electrophoresis; assay type: nucleic-acid assay
[27] = test system: Nucleic Acid; test: Binding affinity to Escherichia coli pUC19 DNA assessed as form 1 DNA level at 0.175 mM by agarose gel electrophoresis; assay type: nucleic-acid assay
[28] = test system: Nucleic Acid; test: Binding affinity to Escherichia coli pUC19 DNA assessed as form 2 DNA level at 0.698 mM after 23.12 hrs by agarose gel electrophoresis; assay type: nucleic-acid assay
[29] = test system: HeLa; test: Growth inhibition of human HeLa cells at 100 uM after 72 hrs by MTT assay; assay type: functional; parameters: scale not given: the % may be the effect or the level left
[30] = test system: Nucleic Acid; test: Binding affinity to Escherichia coli pUC19 DNA assessed as form 2 DNA level at 0.320 mM after 4.95 hrs by agarose gel electrophoresis; assay type: nucleic-acid assay
[31] = test system: Nucleic Acid; test: Binding affinity to Escherichia coli pUC19 DNA assessed as form 1 DNA level at 0.463 mM after 4.42 hrs by agarose gel electrophoresis; assay type: nucleic-acid assay
[32] = test system: Nucleic Acid; test: Binding affinity to Escherichia coli pUC19 DNA assessed as form 1 DNA level at 0.698 mM after 23.12 hrs by agarose gel electrophoresis; assay type: nucleic-acid assay
[33] = test system: Nucleic Acid; test: Binding affinity to Escherichia coli pUC19 DNA assessed as form 1 DNA level at 0.463 mM by agarose gel electrophoresis; assay type: nucleic-acid assay
[34] = test system: Nucleic Acid; test: Binding affinity to Escherichia coli pUC19 DNA assessed as form 2 DNA level at 0.698 mM after 13.07 hrs by agarose gel electrophoresis; assay type: nucleic-acid assay
[35] = test system: Nucleic Acid; test: Binding affinity to Escherichia coli pUC19 DNA assessed as form 1 DNA level at 0.175 mM after 13.07 hrs by agarose gel electrophoresis; assay type: nucleic-acid assay
[36] = test system: Nucleic Acid; test: Binding affinity to Escherichia coli pUC19 DNA assessed as form 2 DNA level at 0.320 mM after 9.07 hrs by agarose gel electrophoresis; assay type: nucleic-acid assay
[37] = test system: Nucleic Acid; test: Binding affinity to Escherichia coli pUC19 DNA assessed as form 1 DNA level at 0.698 mM after 4.95 hrs by agarose gel electrophoresis; assay type: nucleic-acid assay
[38] = test system: Nucleic Acid; test: Binding affinity to Escherichia coli pUC19 DNA assessed as form 1 DNA level at 0.320 mM after 4.95 hrs by agarose gel electrophoresis; assay type: nucleic-acid assay
[39] = test system: Nucleic Acid; test: Binding affinity to Escherichia coli pUC19 DNA assessed as form 2 DNA level at 0.175 mM after 23.12 hrs by agarose gel electrophoresis; assay type: nucleic-acid assay
[40] = test system: Nucleic Acid; test: Binding affinity to Escherichia coli pUC19 DNA assessed as form 1 DNA level at 0.698 mM after 13.07 hrs by agarose gel electrophoresis; assay type: nucleic-acid assay
[41] = test system: Nucleic Acid; test: Binding affinity to Escherichia coli pUC19 DNA assessed as form 2 DNA level at 0.320 mM after 13.07 hrs by agarose gel electrophoresis; assay type: nucleic-acid assay
[42] = test system: HeLa; test: Growth inhibition of human HeLa cells at 10 uM after 72 hrs by MTT assay; assay type: functional; parameters: scale not given: the % may be the effect or the level left
[43] = test system: HL-60; test: Growth inhibition of human HL60 cells at 10 uM after 72 hrs by MTT assay; assay type: functional; parameters: scale not given: the % may be the effect or the level left
[44] = test system: Nucleic Acid; test: Binding affinity to Escherichia coli pUC19 DNA assessed as form 2 DNA level at 0.175 mM after 4.95 hrs by agarose gel electrophoresis; assay type: nucleic-acid assay
[45] = test system: Nucleic Acid; test: Binding affinity to Escherichia coli pUC19 DNA assessed as form 2 DNA level at 0.463 mM after 7.08 hrs by agarose gel electrophoresis; assay type: nucleic-acid assay
[46] = test system: Nucleic Acid; test: Binding affinity to Escherichia coli pUC19 DNA assessed as form 1 DNA level at 0.175 mM after 9.07 hrs by agarose gel electrophoresis; assay type: nucleic-acid assay

Cl.Cl.NNC1=NCCN1
Activity [1]: 3.07%
Activity [2]: 95.8%
Activity [3]: 92%
Activity [4]: 4%
Activity [5]: 90.3%
Activity [6]: 94.1%
Activity [7]: 1.8%
Activity [8]: 93.9%
Activity [9]: 2.43%
Activity [10]: 98.5%
Activity [11]: 95.2%
Activity [12]: 3.24%
Activity [13]: 4.22%
Activity [14]: 98.6%
Activity [15]: 2.64%
Activity [16]: 57%
Activity [17]: 0.4%
Activity [18]: 92.9%
Activity [19]: 1.52%
Activity [20]: 2%
Activity [21]: 7.13%
Activity [22]: 9.67%
Activity [23]: 96.8%
Activity [24]: 2.13%
Activity [25]: 72.2%
Activity [26]: 27.8%
Activity [27]: 99.6%
Activity [28]: 14.2%
Activity [29]: 1%
Activity [30]: 5.03%
Activity [31]: 97.4%
Activity [32]: 85.8%
Activity [33]: 97.6%
Activity [34]: 7.62%
Activity [35]: 96.9%
Activity [36]: 5.87%
Activity [37]: 97.9%
Activity [38]: 95%
Activity [39]: 6.09%
Activity [40]: 92.4%
Activity [41]: 7.99%
Activity [42]: 1%
Activity [43]: 1%
Activity [44]: 1.43%
Activity [45]: 4.78%
Activity [46]: 98.2%

From ChEMBL document CHEMBL1154064, “Synthesis and DNA cleavage activity of 2-hydrazinyl-1,4,5,6-tetrahydropyrimidine containing hydroxy group” (2009)
